Measured values from ChEMBL document CHEMBL1201862, “PubChem BioAssay data set” (2004).
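Each compound was tested at five concentrations against cells in 96-well plates for 48 hours. GI50 is the concentration that inhibits growth by half.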 The source made the active and inactive calls. No stated cut-off is given here; in the data, active = GI50 up to about 1.1 µM and inactive = higher.

Legend:
Experiment in all cases: growth of human tumour cells (NCI), 48 h
[1] = system: CCRF-CEM
[2] = system: UACC-257
[3] = system: A498
[4] = system: SF-539
[5] = system: ACHN
[6] = system: K562
[7] = system: IGROV-1
[8] = system: NCI-H522
[9] = system: Malme-3M
[10] = system: UACC-62
[11] = system: HOP-92
[12] = system: HCT-116
[13] = system: SF-295
[14] = system: HCT-15
[15] = system: UO-31
[16] = system: SN12C
[17] = system: SNB-19

C#CC1(O)CCC2[C@@H]3CCc4cc(Oc5nc(F)nc(-c6c7ccccc7c(SCC)n6CCC)n5)ccc4C3CC[C@@]21C (stereo partly specified)
GI50 [1]: 39.4 µM (inactive) | GI50 [2]: > 100 µM (inactive) | GI50 [3]: > 100 µM (inactive) | GI50 [4]: 58.9 µM (inactive) | GI50 [5]: > 100 µM (inactive) | GI50 [6]: 51.4 µM (inactive) | GI50 [7]: 94.6 µM (inactive) | GI50 [8]: > 10 µM (inactive) | GI50 [9]: > 100 µM (inactive) | GI50 [10]: 89.7 µM (inactive) | GI50 [11]: > 100 µM (inactive) | GI50 [12]: 29.2 µM (inactive) | GI50 [13]: 65.8 µM (inactive) | GI50 [14]: > 100 µM | GI50 [15]: 33.3 µM (inactive)

COc1ccccc1/C=C1\C(=O)N(C(=O)c2ccc(NC(C)=O)cc2)N=C1C
GI50 [1]: > 100 µM (inactive) | GI50 [2]: > 100 µM (inactive) | GI50 [16]: > 100 µM (inactive) | GI50 [4]: > 100 µM (inactive) | GI50 [5]: > 100 µM (inactive) | GI50 [6]: > 100 µM (inactive) | GI50 [8]: > 100 µM (inactive) | GI50 [9]: > 100 µM (inactive) | GI50 [17]: > 100 µM (inactive) | GI50 [12]: > 100 µM (inactive) | GI50 [13]: > 100 µM (inactive) | GI50 [14]: > 100 µM | GI50 [15]: > 100 µM (inactive)

Cc1cc(Br)cc(C)c1NC(=O)C(=O)C(C(=O)c1ccc(Cl)c(Cl)c1)C1OC(=O)c2ccccc21 (stereo unspecified)
GI50 [1]: 35.2 µM (inactive) | GI50 [2]: 36.7 µM (inactive) | GI50 [3]: 26.3 µM (inactive) | GI50 [16]: 79.3 µM (inactive) | GI50 [4]: 25.2 µM (inactive) | GI50 [5]: 28.5 µM (inactive) | GI50 [6]: 28.2 µM (inactive) | GI50 [7]: 91.2 µM (inactive) | GI50 [8]: 36.5 µM (inactive) | GI50 [9]: > 100 µM (inactive) | GI50 [10]: 59.8 µM (inactive) | GI50 [17]: 82 µM (inactive) | GI50 [12]: 48.4 µM (inactive) | GI50 [13]: 90.6 µM (inactive) | GI50 [14]: 50.2 µM | GI50 [15]: 26.2 µM (inactive)

Cc1nnc(N/N=C2\C(=O)Nc3ccccc32)n1N
GI50 [1]: > 100 µM (inactive) | GI50 [2]: > 100 µM (inactive) | GI50 [3]: > 100 µM (inactive) | GI50 [16]: > 100 µM (inactive) | GI50 [4]: > 100 µM (inactive) | GI50 [5]: > 100 µM (inactive) | GI50 [6]: 29.6 µM (inactive) | GI50 [7]: > 100 µM (inactive) | GI50 [8]: > 100 µM (inactive) | GI50 [9]: > 100 µM (inactive) | GI50 [10]: > 100 µM (inactive) | GI50 [17]: > 100 µM (inactive) | GI50 [12]: > 100 µM (inactive) | GI50 [13]: > 100 µM (inactive) | GI50 [14]: > 100 µM | GI50 [15]: > 100 µM (inactive)

CN(C(=O)C12C3C4C1C1C2C3C41C#N)C(C)(C)C (stereo unspecified)
GI50 [1]: > 100 µM (inactive) | GI50 [2]: > 100 µM (inactive) | GI50 [3]: > 100 µM (inactive) | GI50 [16]: > 100 µM (inactive) | GI50 [4]: > 100 µM (inactive) | GI50 [5]: > 100 µM (inactive) | GI50 [6]: > 100 µM (inactive) | GI50 [7]: > 100 µM (inactive) | GI50 [8]: > 100 µM (inactive) | GI50 [9]: > 100 µM (inactive) | GI50 [10]: > 100 µM (inactive) | GI50 [17]: > 100 µM (inactive) | GI50 [12]: > 100 µM (inactive) | GI50 [13]: > 100 µM (inactive) | GI50 [15]: > 100 µM (inactive)

C[C@@]1(CBr)C[C@@](C)(/C=C/Cl)[C@@H](Cl)C[C@H]1Cl
GI50 [1]: 2.92 µM (inactive) | GI50 [2]: 11.4 µM (inactive) | GI50 [3]: 16.9 µM (inactive) | GI50 [16]: 11.7 µM (inactive) | GI50 [4]: 14.6 µM (inactive) | GI50 [5]: 12.7 µM (inactive) | GI50 [6]: 4.74 µM (inactive) | GI50 [7]: 14.8 µM (inactive) | GI50 [8]: 3.31 µM (inactive) | GI50 [9]: 16.4 µM (inactive) | GI50 [10]: 15.5 µM (inactive) | GI50 [17]: 13.5 µM (inactive) | GI50 [11]: 13.6 µM (inactive) | GI50 [12]: 7.03 µM (inactive) | GI50 [13]: 13.8 µM (inactive) | GI50 [15]: 15.6 µM (inactive)

COc1ccc(/C=C2\CNC/C(=C\c3ccc(OC)cc3)C2=O)cc1
GI50 [1]: 12.4 µM (inactive) | GI50 [2]: 75.3 µM (inactive) | GI50 [16]: 37.1 µM (inactive) | GI50 [4]: 13.6 µM (inactive) | GI50 [5]: > 100 µM (inactive) | GI50 [6]: 14.7 µM (inactive) | GI50 [7]: 48.2 µM (inactive) | GI50 [9]: > 100 µM (inactive) | GI50 [10]: 49.4 µM (inactive) | GI50 [17]: 80.2 µM (inactive) | GI50 [11]: 56.9 µM (inactive) | GI50 [12]: 3.24 µM (inactive) | GI50 [13]: 31.1 µM (inactive) | GI50 [14]: 27.4 µM | GI50 [15]: > 100 µM (inactive)
